In US20060264460A1 (Wyeth, priority 2005, published 2006) one finds IC50 data, which are given here for 31 compounds.

The target in one assay is T1, human Cot/Tpl2 kinase (Homo sapiens, UniProt P41279).
T1 construct: human Cot/Tpl2 kinase construct encoding residues 30-398; 6His (N); made in house; host or cells: Sf9 insect cells, baculovirus system (BD Biosciences)
T1 sequence (P41279 30-398): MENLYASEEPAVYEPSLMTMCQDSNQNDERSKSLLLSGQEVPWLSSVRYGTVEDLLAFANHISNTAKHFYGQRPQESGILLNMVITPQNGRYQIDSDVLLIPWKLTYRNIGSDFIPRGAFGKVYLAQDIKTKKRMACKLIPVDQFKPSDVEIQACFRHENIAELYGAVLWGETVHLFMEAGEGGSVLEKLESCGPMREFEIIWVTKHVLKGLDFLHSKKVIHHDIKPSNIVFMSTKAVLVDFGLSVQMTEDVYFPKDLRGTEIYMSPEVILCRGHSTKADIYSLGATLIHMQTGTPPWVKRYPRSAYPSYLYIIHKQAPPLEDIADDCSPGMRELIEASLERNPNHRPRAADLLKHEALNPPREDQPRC
Put plainly: Tpl2/Cot kinase assay: GST-MEK1 phosphorylation detected by ELISA (DELFIA Eu). It is filed as biochemical. As to conditions: 0.4 nM Tpl2, 35 nM GST-MEK1, 50 uM ATP, 1 h at 30° C. The gist of the method:
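Substrate phosphorylation (GST-MEK1 Ser217/221) quantified by DELFIA europium ELISA, yielding IC50 values. Reaction: 1 h at 30° C, pH 7.2 MOPS buffer, 50 uM ATP, 35 nM GST-MEK1, 0.4 nM monomeric His-Tpl2 purified from Sf9 cells, compounds at 1% final DMSO; stopped with EDTA.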
On to `N#Cc1cnc2c(Br)cc(NCc3cn(CCN4C(=O)c5ccccc5C4=O)nn3)cc2c1Nc1ccc(F)c(Cl)c1` [Example 303, 8-Bromo-4-(3-chloro-4-fluoro-phenylamino)-6-({1-[2-(1,3-dioxo-1,3-dihydro-isoindol-2-yl)-ethyl]-1H-[1,2,3]triazol-4-ylmethyl}-amino)-quinoline-3-carbonitrile], for which the half-maximal inhibitory concentration (IC50) is more than 40000 nM.
On the same count and under the same terms, with `N#Cc1cnc2c(Br)cc(NCc3cn(CCN)nn3)cc2c1Nc1ccc(F)c(Cl)c1` [Example 304, 6-{[1-(2-Amino-ethyl)-1H-[1,2,3]triazol-4-ylmethyl]-amino}-8-bromo-4-(3-chloro-4-fluoro-phenylamino)-quinoline-3-carbonitrile] the figure was 17 nM; with `CN1CCCC1CCn1cc(CNc2cc(Br)c3ncc(C#N)c(Nc4ccc(F)c(Cl)c4)c3c2)nn1` (stereo not shown) [Example 305, 8-Bromo-4-(3-chloro-4-fluoro-phenylamino)-6-({1-[2-(1-methyl-pyrrolidin-2-yl)-ethyl]-1H-[1,2,3]triazol-4-ylmethyl}-amino)-quinoline-3-carbonitrile], 25 nM.
`N#Cc1cnc2c(Br)cc(NCc3cn(CCN4CCCCCC4)nn3)cc2c1Nc1ccc(F)c(Cl)c1` [Example 307, 6-{[1-(2-Azepan-1-yl-ethyl)-1H-[1,2,3]triazol-4-ylmethyl]-amino}-8-bromo-4-(3-chloro-4-fluoro-phenylamino)-quinoline-3-carbonitrile]: the concentration for half-maximal inhibition (IC50) came out at 61 nM.
For `N#Cc1cnc2c(Br)cc(NCc3cn(CCN4CCCC4)nn3)cc2c1Nc1ccc(F)c(Cl)c1` [Example 308, 8-Bromo-4-(3-chloro-4-fluoro-phenylamino)-6-{[1-(2-pyrrolidin-1-yl-ethyl)-1H-[1,2,3]triazol-4-ylmethyl]-amino}-quinoline-3-carbonitrile], 28 nM corresponded to half-maximal inhibition (IC50).
Compound `N#Cc1cnc2c(CCC(=O)CO)cc(N)cc2c1Nc1ccc(F)c(Cl)c1` [Example 309, 6-amino-4-[(3-chloro-4-fluorophenyl)amino]-8-(4-hydroxy-3-oxobutyl)quinoline-3-carbonitrile] came in with a 50% inhibitory concentration (IC50) of 7100 nM.
`N#Cc1cnc2c(CCC(=O)CO)cc(NCc3cnc[nH]3)cc2c1Nc1ccc(F)c(Cl)c1` [Example 310, 4-[(3-chloro-4-fluorophenyl)amino]-8-(4-hydroxy-3-oxybutyl)-6-[(1H-imidazol-5-ylmethyl)amino]quinoline-3-carbonitrile]: the IC50 was 150 nM.
Consider `N#Cc1cnc2c(Br)cc(NCc3[nH]nnc3-c3ccccc3)cc2c1Nc1ccc(F)c(Cl)c1` [Example 311, 8-bromo-4-[(3-chloro-4-fluorophenyl)amino]-6-{[(4-phenyl-1H-1,2,3-triazol-5-yl)methyl]amino}quinoline-3-carbonitrile], for which inhibition was half-maximal at 12 nM (IC50).
As for `CCOC(=O)/C=C/c1cc(NCc2cnc[nH]2)cc2c(Nc3ccc(F)c(Cl)c3)c(C#N)cnc12` [Example 312, Ethyl(2E)-3-{4-[(3-chloro-4-fluorophenyl)amino]-3-cyano-6-[(1H-imidazol-5-ylmethyl)amino]quinolin-8-yl}acrylate], the IC50 amounted to 9700 nM.
On the same count and under the same terms, with `N#Cc1cnc2c(CC(O)CO)cc(NCc3cnc[nH]3)cc2c1Nc1ccc(F)c(Cl)c1` (stereo not shown) [Example 314, 4-[(3-chloro-4-fluorophenyl)amino]-8-(2,3-dihydroxypropyl)-6-[(1H-imidazol-5-ylmethyl)amino]quinoline-3-carbonitrile] the figure was 910 nM; with `N#Cc1cnc2c(Br)cc(NCc3cn(C4CCNCC4)nn3)cc2c1Nc1ccc(F)c(Cl)c1` [Example 316, 8-bromo-4-[(3-chloro-4-fluorophenyl)amino]-6-{[(1-piperidin-4-yl-1H-1,2,3-triazol-4-yl)methyl]amino}quinoline-3-carbonitrile], 10 nM.
On the same count and under the same terms, with `CN1CCC(n2cc(CNc3cc(Br)c4ncc(C#N)c(Nc5ccc(F)c(Cl)c5)c4c3)nn2)CC1` [Example 317, 8-bromo-4-[(3-chloro-4-fluorophenyl)amino]-6-({[1-(1-methylpiperidin-4-yl)-1H-1,2,3-triazol-4-yl]methyl}amino)quinoline-3-carbonitrile] the figure was 19 nM.
`CC(O)Cc1nn[nH]c1CNc1cc(Br)c2ncc(C#N)c(Nc3ccc(F)c(Cl)c3)c2c1` (stereo not shown) [Example 318, 8-bromo-4-(3-chloro-4-fluorophenylamino)-6-((5-(2-hydroxypropyl)-3H-1,2,3-triazol-4-yl)methylamino)quinoline-3-carbonitrile] returned an IC50 of 5.7 nM. Against the preceding compound, the IC50 is about 3.3-fold lower.
Compound `N#Cc1cnc2c(Br)cc(NCc3cn(CC(O)CN4CCOCC4)nn3)cc2c1Nc1ccc(F)c(Cl)c1` (stereo not shown) [Example 319, 8-bromo-4-[(3-chloro-4-fluorophenyl)amino]-6-({[1-(2-hydroxy-3-morpholin-4-ylpropyl)-1H-1,2,3-triazol-4-yl]methyl}amino)quinoline-3-carbonitrile] came in with a concentration for half-maximal inhibition (IC50) of 210 nM.
Regarding `N#Cc1cnc2c(Cl)cc(NCc3cn(CC(=O)NCc4ccccn4)nn3)cc2c1Nc1ccc(F)c(Cl)c1` [Example 320, 2-(4-((8-chloro-4-(3-chloro-4-fluorophenylamino)-3-cyanoquinolin-6-ylamino)methyl)-1H-1,2,3-triazol-1-yl)-N-(pyridin-2-ylmethyl)acetamide], it took 5.6 nM to reach half-maximal inhibition (IC50).
On the same count and under the same terms, the figure for `CN(Cc1cn(CCC2CCCN2C)nn1)c1cc(Cl)c2ncc(C#N)c(Nc3ccc(F)c(Cl)c3)c2c1` (stereo not shown) [Example 321, 8-chloro-4-(3-chloro-4-fluorophenylamino)-6-(methyl((1-(2-(1-methylpyrrolidin-2-yl)ethyl)-1H-1,2,3-triazol-4-yl)methyl)amino)quinoline-3-carbonitrile] is 490 nM.
For the compound `CC(C)(C)OC(=O)N1CCC(CNc2cc(Cl)c3ncc(C#N)c(Nc4ccc(F)c(Cl)c4)c3c2)CC1` [Example 322, tert-butyl 4-((8-chloro-4-(3-chloro-4-fluorophenylamino)-3-cyanoquinolin-6-ylamino)methyl)piperidine-1-carboxylate], the IC50 turned out to be 2120 nM.
`N#Cc1cnc2c(Cl)cc(NCC3CCN(Cc4cccnc4)CC3)cc2c1Nc1ccc(F)c(Cl)c1` [Example 323, 8-chloro-4-(3-chloro-4-fluorophenylamino)-6-((1-(pyridin-3-ylmethyl)piperidin-4-yl)methylamino)quinoline-3-carbonitrile] returned an IC50 of 1360 nM.
Turning to `CN1CCC[C@H]1CCn1cc(CNc2cc(Br)c3ncc(C#N)c(Nc4ccc(F)c(Cl)c4)c3c2)nn1` [Example 324, (S)-8-bromo-4-(3-chloro-4-fluorophenylamino)-6-((1-(2-(1-methylpyrrolidin-2-yl)ethyl)-1H-1,2,3-triazol-4-yl)methylamino)quinoline-3-carbonitrile], half-maximal inhibition (IC50) was put at 50 nM.
`CS(=O)(=O)NCCNc1cc(Cl)c2ncc(C#N)c(Nc3ccc(F)c(Cl)c3)c2c1` [Example 326, N-[2-({8-chloro-4-[(3-chloro-4-fluorophenyl)amino]-3-cyanoquinolin-6-yl}amino)ethyl]methanesulfonamide]: the IC50 is 70 nM.
For the compound `CN1CCCC(n2cc(CNc3cc(Cl)c4ncc(C#N)c(Nc5ccc(F)c(Cl)c5)c4c3)nn2)CC1` (stereo not shown) [Example 329, 8-chloro-4-[(3-chloro-4-fluorophenyl)amino]-6-({[1-(1-methylazepan-4-yl)-1H-1,2,3-triazol-4-yl]methyl}amino)quinoline-3-carbonitrile], the IC50 was 4.4 nM.
Regarding `CCN1CCCC(n2cc(CNc3cc(Cl)c4ncc(C#N)c(Nc5ccc(F)c(Cl)c5)c4c3)nn2)CC1` (stereo not shown) [Example 330, 8-chloro-4-[(3-chloro-4-fluorophenyl)amino]-6-({[1-(1-ethylazepan-4-yl)-1H-1,2,3-triazol-4-yl]methyl}amino)quinoline-3-carbonitrile], the IC50 was 8.5 nM.
Compound `CC(C)N1CCCC(n2cc(CNc3cc(Cl)c4ncc(C#N)c(Nc5ccc(F)c(Cl)c5)c4c3)nn2)CC1` (stereo not shown) [Example 331, 8-chloro-4-[(3-chloro-4-fluorophenyl)amino]-6-({[1-(1-isopropylazepan-4-yl)-1H-1,2,3-triazol-4-yl]methyl}amino)quinoline-3-carbonitrile] registered an IC50 of 8.2 nM.
As for `N#Cc1cnc2c(Cl)cc(NCc3cn(C4CCC5(CC4)OCCO5)nn3)cc2c1Nc1ccc(F)c(Cl)c1` [Example 332, 8-chloro-4-[(3-chloro-4-fluorophenyl)amino]-6-({[1-(1,4-dioxaspiro[4.5]dec-8-yl)-1H-1,2,3-triazol-4-yl]methyl}amino)quinoline-3-carbonitrile], the midpoint of inhibition, the IC50, lay at 39 nM.
Compound `N#Cc1cnc2c(Cl)cc(NCc3cn(C4CCC(=O)CC4)nn3)cc2c1Nc1ccc(F)c(Cl)c1` [Example 333, 8-chloro-4-[(3-chloro-4-fluorophenyl)amino]-6-({[1-(4-oxocyclohexyl)-1H-1,2,3-triazol-4-yl]methyl}amino)quinoline-3-carbonitrile] registered a 50% inhibitory concentration (IC50) of 1.1 nM.
As to `N#Cc1cnc2c(Cl)cc(NCc3cn(C4CCC(O)(c5ccccn5)CC4)nn3)cc2c1Nc1ccc(F)c(Cl)c1` (stereo not shown) [Example 335, 8-chloro-4-[(3-chloro-4-fluorophenyl)amino]-6-({[1-(4-hydroxy-4-pyridin-2-ylcyclohexyl)-1H-1,2,3-triazol-4-yl]methyl}amino)quinoline-3-carbonitrile], the IC50 is 20 nM.

The assay is the same for the next values; noted with them: Table 2; Tpl2/Cot kinase, GST-MEK1 substrate, 50 uM ATP.
Consider `N#Cc1cnc2ccc(Br)cc2c1Nc1ccc(Oc2ccccc2)cc1` [Example 336], for which the IC50 was determined as 1000 nM.
With `N#Cc1cnc2ccc(NCCN3CCOCC3)cc2c1Nc1ccc(F)c(Cl)c1` [Example 337], the IC50 was 1000 nM.
`N#Cc1cnc2ccc(NCCN3CCOCC3)cc2c1Nc1ccc(Oc2ccccc2)cc1` [Example 338] showed a half-maximal inhibitory concentration (IC50) of 150 nM. This IC50 lies about 6.7-fold lower than the previous one.
`COc1ccc(CNc2ccc3ncc(C#N)c(Nc4ccc(F)c(F)c4)c3c2)cn1` [Example 340] displayed an IC50 of 440 nM.
As for `N#Cc1cnc2ccc(NCc3ccc(=O)[nH]c3)cc2c1Nc1ccc(F)c(F)c1` [Example 341], it took 400 nM to reach half-maximal inhibition (IC50).

By IC50 is commonly meant the concentration needed to halve the response being measured.
